Patent publication US5998521A, “Aqueous fluoropolymer compositions and method of preparing the same” (3M Innovative Properties Company, priority 1996, dated 1999)

How the values were obtained:
[1] = Thermal degradation in aqueous media; format: physicochemical; details: for volatile products formed: aqueous, approximately 80° C. for several hours, or similar way
Protocol: The thermal degradation of an aqueous α-branched perfluoroalkylcarbonyl fluoride and the characterization of the products produced from the degradation were carried out using the following procedure. […] 5.7 g of volatile degradation products were then collected by azeotropic distillation using a Dean-Stark apparatus.
The thermal degradation of C7 F15 CF(CF3)COF (from Example A4) dispersed in water was also carried out by heating the aqueous mixture for several hours at approximately 80° C.

[2] = test system: rats; details: Goeche-Flora et al.; cited from earlier work
[3] = Acute LD50, one-time feeding study of rats over 21 days; format: in vivo, rat; details: rat, in vivo, po; one-time feeding, rats, 21 day period
Protocol: (§1) Acute LD50 measurements for a one-time feeding study of rats were determined over a 21 day period for both the α-branched perfluorocarboxylate salt, C7 F15 CF(CF3)COO^- NH4^+, and its straight chain isomer, CF3 (CF2)8 COO^- NH4^+.

[4] = test system: rats; assay: as above; format: in vivo, rat; details: for acute toxicity: rat, in vivo
Protocol: as §1

[5] = Thermogravimetric analysis of neat perfluorocarboxylate salts; format: physicochemical; details: neat salt, nitrogen, 10° C./min
From the text: Thermal degradation measurements were made on a series of neat perfluorocarboxylate salts, including several α-branched open chain structures (Examples N2-N9), a primarily linear open chain structure (Example N10-Fluorad™ FC-143 Fluorochemical Surfactant, commercially available from 3M Company, St. Paul, Minn.), and a closed chain (i.e., cyclic) structure (Example N11--made by the electrochemical fluorination of benzoic acid and hydrolysis in the presence of KOH, as described in U.S. Pat. No. 2,567,011 (Diesslin et al.)).
The perfluorocarboxylate salts were tested using a Perkin-Elmer TGA 7 thermogravimetric analysis apparatus and a salt sample size of approximately 5 mg, a heating rate of 10° C./min, and a nitrogen gas flow rate of 40-45 mL/min. Using the TGA 7 software, the following temperatures were recorded: (1) the onset temperature of decomposition, (2) the temperature at which 50% of the sample weight was lost, and (3) the temperature at which 90% of the sample weight was lost.

[6] = Degradation in aqueous solution at room temperature over 1 year; format: physicochemical
Protocol: The α-branched open chain ammonium salt compounds from Examples N3-N6 were dissolved in deionized water at a concentration of 5% by weight (0.5 g ammonium salt in 10 mL water) and were stored at room temperature.

[7] = Surface tension and critical micelle concentration of aqueous surfactant solutions; format: physicochemical; details: Table 5, deionized water; for Surf. Tens.: at the CMC
Protocol: Critical Micelle Concentration (CMC): The critical micelle concentration is defined as the concentration at which further surface tension is no longer lowered with increasing levels of surfactant. To determine CMC, surface tension is measured as a function of surfactant concentration using a K-12 Processor Tensiometer in conjunction with a 665 Dosimat automatic surfactant injection device (also commercially available from Kruss GmbH). Surface tension is then plotted vs. log concentration and the data points are connected. The resulting curve has a nearly horizontal flat portion at concentrations above the CMC and has a negative steep slope at concentrations below the CMC. The CMC is defined as the lowest surfactant concentration in the horizontal flat portion of the curve.
(§2) Then the critical micelle concentration (CMC) was determined for each surfactant.
as §2

[8] = Emulsion copolymerization of hexafluoropropylene and vinylidene fluoride
From the text: The following procedure was used to evaluate C7 F15 CF(CF3)COO^- NH4^+ (from Ex. M1) as an emulsifier to copolymerize hexafluoropropylene (HFP) and vinylidene fluoride.
A 1 gallon, vertically agitated stainless steel reactor with pressure and temperature controls was evacuated and twice purged with nitrogen. Using an isolated vacuum, a solution comprised of 2 g of ammonium persulfate (initiator) and 6 g of dipotassium phosphate dissolved in 2800 g of deionized water was introduced into the reactor. The remaining vacuum on the reactor was vented with nitrogen, and the solution was degassed twice under agitation using alternate vacuum and nitrogen purges. A sufficient amount of a solution of C7 F15 CF(CF3)COO^- NH4^+ in approximately 20 g of 60-70° C. deionized water was introduced to the reactor under isolated vacuum to give a calculated final concentration of 350 ppm emulsifier in the aqueous solution. The reactor was vented with nitrogen, the solution was agitated very briefly, and the reactor was evacuated of nitrogen and isolated. Then the reactor was vented with hexafluoropropylene monomer to a pressure of approximately 10 psig (1280 torr total pressure), and the temperature of the batch was raised to 72° C. with high agitation. Maintaining the temperature at 72° C., a monomer mixture of 60% (wt) of vinylidene fluoride and 40% (wt) hexafluoropropylene was fed from a tared gas cylinder into the head space of the reactor to maintain a reactor pressure of 130 psig (7480 total pressure). After feeding in about 1 kg of monomer blend (approximately 3.75 hours duration), the introduction of monomer was ceased, the reaction was allowed to cool to room temperature, and any residual unreacted monomer was vented.
The resulting latex polymer was drained from the reactor, and percent solids of the latex was determined to be 25% by weight as measured by drying 10 g of latex in a forced air oven for 16 hours at 105° C.
The reactor body was separated from the reactor head, and a visual inspection of the reactor was made to determine the amount of coagulated polymer in the reactor (the amount should be minimal in a good polymerization reaction). A qualitative rating was assessed, ranging from "none" to "little" to "some."
The latex stability was determined by half filling a 16 oz (450 mL) jar with latex and shaking several hours in the horizontal position, quantitatively rating the latex after shaking using a 3-point scale ranging from 0=very stable to 3=unstable.
Particle size in the latex was determined using 90° scattering on a Coulter sub-micron particle size analyzer.
Degree of foaming was rated using the following qualitative scale: 0=not foamy, 1=slightly foamy, 2=moderately foamy, and 3=very foamy.
In Example P2, the same experiment was run as in Example P1, except that the concentration of C7 F15 CF(CF3)COO^- NH4^+emulsifier was raised to 3500 ppm, the reaction time decreased from 3.75 to 3.5 hours, and the reaction temperature increased from 72° C. to 78° C.
In Comparative Examples P3-P6, the same experiment was run as in Example P1, except that C8 F17 SO2 N(C2 H5)CH2 COO^- K^+ (Fluorad™ FC-128 Fluorochemical Surfactant, available from 3M Company, St. Paul, Minn.), C7 F15 COO^- H4 N^+ (Fluorad™ FC-143 Fluorochemical Surfactant), and Surflon™ S111S Fluorochemical Surfactant (believed to be nominally telomer-based n-C9 F19 COO^- H4 N^+, commercially available from Asahi Glass Corp., Japan) were substituted for C7 F15 CF(CF3)COO^- HN^+ emulsifier.

[9] = test system: rats; assay: Rat desiccator jar chamber test, exhaled degradation products; format: in vivo
Protocol: Additional biological testing of C7 F15 CF(CF3)COO^- NH4^+ in rats was conducted using the following test apparatus. An uptake desiccator jar chamber was designed with top and bottom portions, the top portion equipped with an inlet port, an outlet port, oxygen monitor and pressure gage. An oxygen gas tank supplied oxygen into the inlet port, and the oxygen level in the chamber was maintained at a normal ambient level as measured by the oxygen monitor and pressure gage. The outlet port was connected in series with a carbon dioxide scrubber and particulate filter, which in turn was connected to a loop containing a stainless steel bellows pump operating at about 2 L/min. Most of the gas in the loop was recycled into the inlet port, but about 100 mL/min was directed through a secondary loop to a gas chromatograph equipped with a 0.5 mL gas sampling loop.
A rat dosed at 500 mg/kg was placed in the bottom portion of the chamber, the top portion was attached, and the assembled chamber was placed in an ice-filled pan to allow for the condensation of water. The oxygen flow was started, and the exhaust gases were monitored for the presence of CF3 CF=CF(C6 F13) and C7 F15 CFHCF3, aqueous degradation products of C7 F15 CF(CF3)COOH, using known standards of this olefin and hydride in the gas chromatograph. […] After 24 minutes, one slight chromatographic peak was noted, corresponding to the monohydride. After 92 minutes, the peak became noticeably larger and a second peak formed, corresponding to the olefin.

[10] = Hydrolytic stability of esters in concentrated aqueous ammonium hydroxide; format: physicochemical; details: 2 days
From the text: The acrylate and methacrylate esters from Examples D1-D11 were fully recoverable with essentially no degradation after being stirred with concentrated aqueous ammonium hydroxide for a period of 2 days.

O=C(O)C(F)(C(F)(F)F)C(F)(F)C(F)(F)C(F)(F)C(F)(F)C(F)(F)C(F)(F)C(F)(F)F (centres unmarked) [Example M1, C7 F15 CF(CF3)COOH]
volatile products formed [1]: the same monohydride and olefin

O=C(F)C(F)(C(F)(F)F)C(F)(F)C(F)(F)C(F)(F)C(F)(F)C(F)(F)C(F)(F)C(F)(F)F (centres unmarked) [Example A4, C7 F15 CF(CF3)COF]
volatile products formed [1]: The same volatile products were formed as in Example N1
volatile degradation products collected ([1]; from 8 g, refluxed in deionized water 2 hours): 5.7 g
monohydride in volatile degradation products ([1]; in water): 85%
olefin in volatile degradation products ([1]; in water): 15%

O=C(O)C(F)(F)C(F)(F)C(F)(F)C(F)(F)C(F)(F)C(F)(F)C(F)(F)C(F)(F)C(F)(F)F [C9 F19 COO^- NH4^+, CF3 (CF2)8 COO^- NH4^+, reference compound]
toxicity (literature, words) [2]: moderately toxic
LD50 at 504 h [3]: 50 to 100 mg/kg
acute toxicity [4]: moderately toxic
wasting syndrome ([4]; rats): Wasting syndrome was observed
toxicity relative to the α-branched isomer ([4]; rats, LD50): ca. 10 times

O=C(O)C(F)(F)C(F)(F)C(F)(F)C(F)(F)C(F)(F)C(F)(F)C(F)(F)F [FC-143, C7 F15 COO^- H4 N^+]
Temperature for: 50% loss [5]: 188 °C
Temperature for: 90% loss [5]: 202 °C
Temperature for: Onset [5]: 173 °C
degradation after 1 year [6]: no signs of degradation
Surf. Tens. [7]: 21.5 dynes/cm
CMC [7]: 8000 ppm
Latex Stability ([8]; emulsifier 350 ppm): 2

CCN(CC(=O)O)S(=O)(=O)C(F)(F)C(F)(F)C(F)(F)C(F)(F)C(F)(F)C(F)(F)C(F)(F)C(F)(F)F [Fluorad ™ FC-128, C8 F17 SO2 N(C2 H5)CH2 COO^- K^+]
Latex Stability ([8]; emulsifier 100 ppm): 2
Latex Stability ([8]; emulsifier 350 ppm): 0

O=C(O)C(F)(C(F)(F)F)C(F)(F)C(F)(F)C(F)(F)C(F)(F)C(F)(F)F (centres unmarked) [Example M15, C5 F11 CF(CF3)COO^- H4 N^+]
Temperature for: 50% loss ([5]; listed as N2): 178 °C
Temperature for: 90% loss ([5]; listed as N2): 188 °C
Temperature for: Onset ([5]; listed as N2): 166 °C
Surf. Tens. [7]: 22.1 dynes/cm
CMC [7]: > 10000 ppm

O=C(O)C(F)(C(F)(F)F)C(F)(F)C(F)(F)C(F)(F)C(F)(F)C(F)(F)C(F)(F)C(F)(F)F (centres unmarked) [Example M14, C7 F15 CF(CF3)COO^- H4 N^+]
olefin and monohydride in exhaust gas ([9]; after 217 minutes): both peaks became significantly larger
olefin and monohydride in exhaust gas ([9]; initially): no olefin or hydride were detected
metabolism and elimination ([9]; rat): being metabolized by the rat to volatile metabolites which were eliminated from the rat via transpiration
post-exposure observation ([9]; rat dosed at 500 mg/kg): no evidence of toxicity (death) or evidence of wasting syndrome
time at which monohydride peak noted in exhaust gas ([9]; rat dosed at 500 mg/kg): 24 min
time at which olefin peak formed in exhaust gas ([9]; rat dosed at 500 mg/kg, monohydride peak noticeably larger): 92 min
Temperature for: 50% loss [5]: 163 °C
Temperature for: 90% loss [5]: 174 °C
Temperature for: Onset [5]: 151 °C
LD50 at 504 h [3]: 500 to 1000 mg/kg
acute toxicity ([4]; listed as C7 F15 CF(CF3)COO^- NH4): relatively low toxicity
acute toxicity ([4]; listed as C7 F15 CF(CF3)COO^- NH4+): only slightly toxic
time of deaths from toxic doses ([4]; rats): 2 to 3 days
time until rats began regaining weight ([4]; rats): 3 days
wasting syndrome ([4]; rats): No wasting syndrome was noted
Surf. Tens. [7]: 16.5 dynes/cm
CMC [7]: 2500 ppm
Latex Stability ([8]; emulsifier 350 ppm): 2
Latex Stability ([8]; emulsifier 3500 ppm): 0

C=CC(=O)OCCOC(=O)C(F)(F)C(F)(F)C(F)(F)C(F)(F)C(F)(F)C(F)(F)C(F)(F)F [C7 F15 COOCH2 CH2 OCOCH=CH2]
hydrolytic stability [10]: readily hydrolyzed
